This passage reports IC50 results from BindingDB's records for patent US10550105 (Ribon Therapeutics, 2020).

Broadly, the IC50 is the concentration at which inhibition is half-maximal. Low readings indicate greater potency, high ones weaker potency.

Molecules are shown by their SMILES.

The assay concerns the target T1, Protein mono-ADP-ribosyltransferase TIPARP (Homo sapiens, UniProt Q7Z3E1).
T1 sequence (Q7Z3E1 whole entry): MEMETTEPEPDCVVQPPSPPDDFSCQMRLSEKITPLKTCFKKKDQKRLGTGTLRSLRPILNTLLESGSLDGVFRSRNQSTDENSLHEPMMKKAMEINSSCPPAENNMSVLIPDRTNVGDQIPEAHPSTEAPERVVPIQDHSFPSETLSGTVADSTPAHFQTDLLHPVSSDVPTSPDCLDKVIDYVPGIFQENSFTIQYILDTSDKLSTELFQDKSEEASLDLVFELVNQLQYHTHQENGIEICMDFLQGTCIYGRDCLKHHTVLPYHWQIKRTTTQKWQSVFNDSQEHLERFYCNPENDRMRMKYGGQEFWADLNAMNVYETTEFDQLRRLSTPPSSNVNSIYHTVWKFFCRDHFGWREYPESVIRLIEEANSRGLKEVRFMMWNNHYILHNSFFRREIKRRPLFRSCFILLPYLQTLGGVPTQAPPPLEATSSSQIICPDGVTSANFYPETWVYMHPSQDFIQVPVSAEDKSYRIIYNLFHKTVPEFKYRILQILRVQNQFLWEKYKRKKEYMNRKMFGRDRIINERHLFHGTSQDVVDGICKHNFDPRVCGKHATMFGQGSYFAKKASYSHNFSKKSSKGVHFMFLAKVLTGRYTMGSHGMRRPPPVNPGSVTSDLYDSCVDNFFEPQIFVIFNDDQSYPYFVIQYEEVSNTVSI
The assay is described as follows: Enzymatic Assay for Inhibition of PARP7. As for the experimental part:
Displacement of Probe A, a biotinylated probe binding to the TIPARP active site, was measured using a time-resolved fluorescence energy transfer (TR-FRET) assay. 20 nL of a dose response curve of each test compound was spotted in black 384-well polystyrene proxiplates (Perkin Elmer) using a Mosquito (TTP Labtech). Reactions were performed in a 8 μL volume by adding 6 μL of TIPARP and Probe A in assay buffer (20 mM HEPES pH=8, 100 mM NaCl, 0.1% bovine serum albumin, 2 mM DTT and 0.002% Tween20), incubating with test compound at 25° C. for 30 min, then adding 2 μL of ULight-anti 6×His and LANCE Eu-W1024 labeled streptavidin (Perkin Elmer). The final concentrations of TIPARP and Probe A were 6 nM and 2 nM, respectively. […] The Hill Coefficient is normally allowed to float but may also be fixed at 1 in a 3-parameter fit. Y is the % inhibition and x is the compound concentration.

In turn, `N#Cc1ccc(N2CCN(C(=O)/C=C\COC[C@H]3c4ccccc4CN3c3cn[nH]c(=O)c3C(F)(F)F)CC2)nc1` [US10550105, Example 79C] gave an IC50 of less than 100 nM.
Next, `N#Cc1ccc(N2CCN(C(=O)/C=C\COC[C@@H]3c4ccccc4CN3c3cn[nH]c(=O)c3C(F)(F)F)CC2)nc1` [US10550105, Example 79D]: less than 100 nM.
Next, `C[C@@H](OCCC(=O)N1CCN(c2ccc(C#N)cn2)CC1)[C@@H]1CCCN1c1cn[nH]c(=O)c1C(F)(F)F` [US10550105, Example 140B]: “in the range around 550 nM”; `O=C(c1cncc(OC[C@H]2c3ccccc3CN2c2cn[nH]c(=O)c2C(F)(F)F)c1)N1CCn2c(nnc2C(F)(F)F)C1` [US10550105, Example 372]: more than 1000 nM.
The compound `O=C(c1cncc(OCC2c3ccccc3CN2c2cn[nH]c(=O)c2C(F)(F)F)c1)N1CCn2ncnc2C1` (stereo not given) [US10550105, Example 398] gave an IC50 of less than 100 nM.
